In patent US20260216198A1, “GPR35 MODULATORS” (ThirtyFiveBio Limited, priority 2023, published 2026):

Target: T1, GPR35 (Homo sapiens, UniProt Q9HC97)
T1 construct: expressed in transfected cells; host or cells: CHO-K1 cells co-expressing mitochondrial aequorin and Gα16
Assay: cellular GPR35 phospho-ERK HTRF assay (inhibition of lodoxamide-induced phospho-ERK signal)
Type: cell-based
Conditions: GPR35-CHO-K1-mt aequorin-Gα16 cell line; agonist lodoxamide at EC80; read-out: Activity Group (IC50, inhibition of GPR35 agonist-induced phospho-ERK signal)
Source text: (§1) The functional GPR35 assay as described in the accompanying examples measures the ability of GPR35 modulators to inhibit a GPR35 agonist-induced phospho-ERK signal. This is expressed as the concentration of modulator required to reduce the phospho-ERK signal by 50 percent, i.e. the IC50; the signal window being defined as the difference between agonist plus modulator vehicle (no modulator) and agonist vehicle (no agonist) controls.
as §1, with “functional” for “functional GPR35”, “assay” for “assay as”, “described” for “described in the accompanying examples”
This assay is a cellular GPR35 phospho-ERK homogeneous time resolved fluorescence (HTRF) assay using the GPR35-CHO-K1-mt aequorin-Gα16 cell line. Upon activation of GPR35 with the agonist lodoxamide at EC80 concentration, ERK 1/2 is phosphorylated, and after lysis of the cell membrane, phospho-ERK1/2 (Thr202/Tyr204) is detected in a sandwich assay using two different specific antibodies, one labelled with Eu^3+-cryptate (donor) and the second with d2 (acceptor). When the dyes are in proximity, the excitation of the donor with a light source (laser or flash lamp) triggers a Fluorescence Resonance Energy Transfer (FRET) towards the acceptor, resulting in specific acceptor fluorescence (at 665 nm). The specific signal is directly proportional to the amount of phospho-ERK1/2 (Thr202/Tyr204) in the sample. Compounds that interfere with the levels of phospho-ERK1/2 (Thr202/Tyr204) will result in a low HTRF signal.

T1 sequence (Q9HC97 whole entry): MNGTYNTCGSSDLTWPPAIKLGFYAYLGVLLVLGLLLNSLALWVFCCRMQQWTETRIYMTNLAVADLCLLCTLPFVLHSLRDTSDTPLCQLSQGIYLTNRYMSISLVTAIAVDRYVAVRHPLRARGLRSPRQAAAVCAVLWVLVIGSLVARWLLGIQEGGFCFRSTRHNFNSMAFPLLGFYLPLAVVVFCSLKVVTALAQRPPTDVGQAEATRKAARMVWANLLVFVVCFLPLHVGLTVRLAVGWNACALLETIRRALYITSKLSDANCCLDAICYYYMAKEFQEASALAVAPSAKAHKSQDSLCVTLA

| Compound | IC50 |
| --- | --- |
| O=C(Nc1ccc(OCCc2ccccc2)cc1)c1cccc(-c2cnc(NC3CC3)c(C(=O)O)c2)c1 [Example 38, 2-(Cyclopropylamino)-5-(3-((4-phenethoxyphenyl)carbamoyl)phenyl)nicotinic acid] | < 1000 nM |
| Cc1ncc(-c2cccc(C(=O)Nc3ccc(COCc4ccccc4)cc3)c2)cc1C(=O)O [Example 39, 5-(3-((4-((Benzyloxy)methyl)phenyl)carbamoyl)phenyl)-2-methylnicotinic acid] | < 1000 nM |
| Cc1ncc(-c2cccc(C(=O)Nc3cccc(COCc4ccccc4)c3)c2)cc1C(=O)O [Example 40, 5-(3-((3-((Benzyloxy)methyl)phenyl)carbamoyl)phenyl)-2-methylnicotinic acid] | 1000 to 10000 nM |
| Cc1ncc(-c2cccc(C(=O)Nc3ccc(OCC4CC4)cc3)c2)cc1C(=O)O [Example 41, 5-(3-((4-(Cyclopropylmethoxy)phenyl)carbamoyl)phenyl)-2-methylnicotinic acid] | 1000 to 10000 nM |
| Cc1ncc(-c2cccc(C(=O)Nc3ccc(COC4CC4)cc3)c2)cc1C(=O)O [Example 42, 5-(3-((4-(Cyclopropoxymethyl)phenyl)carbamoyl)phenyl)-2-methylnicotinic acid] | 1000 to 10000 nM |
| Cc1ncc(-c2cccc(C(=O)Nc3ccc(CS(=O)(=O)Cc4ccccc4)cc3)c2)cc1C(=O)O [Example 43, 5-(3-((4-((Benzylsulfonyl)methyl)phenyl)carbamoyl)phenyl)-2-methylnicotinic acid] | 1000 to 10000 nM |
| Cc1ncc(-c2cccc(C(=O)Nc3ccc(COCC4CC4)cc3)c2)cc1C(=O)O [Example 44, 5-(3-((4-((Cyclopropylmethoxy)methyl)phenyl)carbamoyl)phenyl)-2-methylnicotinic acid] | 1000 to 10000 nM |
| O=C(Nc1ccc(COCC2CC2)cc1)c1cccc(-c2cnc(Cl)c(C(=O)O)c2)c1 [Example 45, 2-Chloro-5-(3-((4-((cyclopropylmethoxy)methyl)phenyl)carbamoyl)phenyl)nicotinic acid] | 1000 to 10000 nM |
| O=C(Nc1ccc(OCCc2ccccc2)nc1)c1cccc(-c2cccc(C(=O)O)n2)c1 [Example 46, 6-(3-((6-Phenethoxypyridin-3-yl)carbamoyl)phenyl)picolinic acid] | 1000 to 10000 nM |
| Cc1ncc(-c2cccc(C(=O)Nc3ccc(COCc4ccccc4)cc3F)c2)cc1C(=O)O [Example 47, 5-(3-((4-((Benzyloxy)methyl)-2-fluorophenyl)carbamoyl)phenyl)-2-methylnicotinic acid] | 1000 to 10000 nM |
| O=C(Nc1cccc(-c2cccc(C(=O)O)n2)c1)c1ccc(OCCCCc2ccccc2)cc1 [Example 48, 6-(3-(4-(4-Phenylbutoxy)benzamido)phenyl)picolinic acid] | < 1000 nM |
| Cc1ncc(-c2ncc(C(=O)Nc3ccc(COCc4ccccc4)cc3)s2)cc1C(=O)O [Example 49, 5-(5-((4-((Benzyloxy)methyl)phenyl)carbamoyl)thiazol-2-yl)-2-methylnicotinic acid] | 1000 to 10000 nM |
| Cc1ncc(-c2nc(C(=O)Nc3ccc(COCc4ccccc4)cc3)cs2)cc1C(=O)O [Example 50, 5-(4-((4-((Benzyloxy)methyl)phenyl)carbamoyl)thiazol-2-yl)-2-methylnicotinic acid] | 1000 to 10000 nM |
| Cc1ncc(-c2cncc(C(=O)Nc3ccc(OCCc4ccccc4)cc3)c2)cc1C(=O)O [Example 51, 6-Methyl-5′-((4-phenethoxyphenyl)carbamoyl)-[3,3′-bipyridine]-5-carboxylic acid] | 1000 to 10000 nM |
| Cc1ncc(-c2ccc(F)c(C(=O)Nc3ccc(COCc4ccccc4)cc3)c2)cc1C(=O)O [Example 52, 5-(3-((4-((Benzyloxy)methyl)phenyl)carbamoyl)-4-fluorophenyl)-2-methylnicotinic acid] | < 1000 nM |
| Cc1ncc(-c2cc(C(=O)Nc3ccc(OCCc4ccccc4)cc3)ccn2)cc1C(=O)O [Example 53, 6′-Methyl-4-((4-phenethoxyphenyl)carbamoyl)-[2,3′-bipyridine]-5′-carboxylic acid] | < 1000 nM |
| Cc1ncc(-c2cncc(C(=O)Nc3ccc(OCCc4ccccc4)cc3)n2)cc1C(=O)O [Example 54, 2-Methyl-5-(6-((4-phenethoxyphenyl)carbamoyl)pyrazin-2-yl)nicotinic acid] | 1000 to 10000 nM |

| Compound | IC50 |
| --- | --- |
| Cc1ncc(-c2nccc(C(=O)Nc3ccc(OCCc4ccccc4)cc3)n2)cc1C(=O)O [Example 55, 2-Methyl-5-(4-((4-phenethoxyphenyl)carbamoyl)pyrimidin-2-yl)nicotinic acid] | 1000 to 10000 nM |
| Cc1ncc(-c2cccc(C(=O)Nc3ccc(COCc4ccccc4)c(F)c3)c2)cc1C(=O)O [Example 56, 5-[3-[[4-(Benzyloxymethyl)-3-fluoro-phenyl]carbamoyl]phenyl]-2-methyl-pyridine-3-carboxylic acid] | < 1000 nM |
| Cc1ncc(-c2cccc(C(=O)Nc3cnn(CCc4ccccc4)c3)c2)cc1C(=O)O [Example 57, 2-Methyl-5-[3-[[1-(2-phenylethyl)pyrazol-4-yl]carbamoyl]phenyl]pyridine-3-carboxylic acid] | < 1000 nM |
| Cc1ccc(S(=O)(=O)Cc2ccc(NC(=O)c3cccc(-c4cnc(C)c(C(=O)O)c4)c3)cc2)cc1 [Example 58, 2-Methyl-5-[3-[[4-(p-tolylsulfonylmethyl)phenyl]carbamoyl]phenyl]pyridine-3-carboxylic acid] | < 1000 nM |
| Cc1ncc(-c2cccc(C(=O)Nc3ccc(COC(C)c4ccccc4)cc3)c2)cc1C(=O)O (stereo not shown) [Example 59, 2-Methyl-5-[3-[[4-(1-phenylethoxymethyl)phenyl]carbamoyl]phenyl]pyridine-3-carboxylic acid] | < 1000 nM |
| Cc1ncc(-c2cccc(C(=O)Nc3ccc(OC(C)C4CC4)cc3)c2)cc1C(=O)O (stereo not shown) [Example 60, 5-[3-[[4-(1-Cyclopropylethoxy)phenyl]carbamoyl]phenyl]-2-methyl-pyridine-3-carboxylic acid] | < 1000 nM |
| COc1cc(COCc2ccccc2)ccc1NC(=O)c1cccc(-c2cnc(C)c(C(=O)O)c2)c1 [Example 61, 5-[3-[[4-(Benzyloxymethyl)-2-methoxy-phenyl]carbamoyl]phenyl]-2-methyl-pyridine-3-carboxylic acid] | 1000 to 10000 nM |
| Cc1ncc(-c2cccc(C(=O)Nc3ccc(COCc4ccccn4)c(F)c3)c2)cc1C(=O)O [Example 62, 5-[3-[[3-Fluoro-4-(2-pyridylmethoxymethyl)phenyl]carbamoyl]phenyl]-2-methyl-pyridine-3-carboxylic acid] | 1000 to 10000 nM |
| COc1ccc(COCc2ccc(NC(=O)c3cccc(-c4cnc(C)c(C(=O)O)c4)c3)cc2F)cc1 [Example 63, 5-[3-[[3-Fluoro-4-[(4-methoxyphenyl)methoxymethyl]phenyl]carbamoyl]phenyl]-2-methyl-pyridine-3-carboxylic acid] | < 1000 nM |
| COc1cccc(COCc2ccc(NC(=O)c3cccc(-c4cnc(C)c(C(=O)O)c4)c3)cc2F)c1 [Example 64, 5-[3-[[3-Fluoro-4-[(3-methoxyphenyl)methoxymethyl]phenyl]carbamoyl]phenyl]-2-methyl-pyridine-3-carboxylic acid] | < 1000 nM |
| O=C(O)c1cnc(F)c(-c2cccc(C(=O)Nc3ccc(OCCc4ccccc4)cc3)c2)c1 [Example 65, 6-Fluoro-5-[3-[[4-(2-phenylethoxy)phenyl]carbamoyl]phenyl]pyridine-3-carboxylic acid] | < 1000 nM |
| O=C(O)c1cnc(O)c(-c2cccc(C(=O)Nc3ccc(OCCc4ccccc4)cc3)c2)c1 [Example 66, 6-Hydroxy-5-[3-[[4-(2-phenylethoxy)phenyl]carbamoyl]phenyl]pyridine-3-carboxylic acid] | 1000 to 10000 nM |
| O=C(O)c1cnnc(-c2cccc(C(=O)Nc3ccc(COCc4ccccc4)cc3)c2)c1 [Example 67, 6-[3-[[4-(Benzyloxymethyl)phenyl]carbamoyl]phenyl]pyridazine-4-carboxylic acid] | < 1000 nM |
| Cc1ncc(-c2cccc(C(=O)Nc3ccc(COCc4ccccc4)cc3)c2)nc1C(=O)O [Example 68, 6-[3-[[4-(Benzyloxymethyl)phenyl]carbamoyl]phenyl]-3-methyl-pyrazine-2-carboxylic acid] | < 1000 nM |
| Cc1ncc(-c2cc(C(=O)Nc3ccc(OCCc4ccccc4)cc3)ncn2)cc1C(=O)O [Example 69, 2-Methyl-5-[6-[[4-(2-phenylethoxy)phenyl]carbamoyl]pyrimidin-4-yl]pyridine-3-carboxylic acid] | < 1000 nM |
| Cc1ncc(-c2ccnc(C(=O)Nc3ccc(OCCc4ccccc4)cc3)c2)cc1C(=O)O [Example 70, 2-Methyl-5-[2-[[4-(2-phenylethoxy)phenyl]carbamoyl]-4-pyridyl]pyridine-3-carboxylic acid] | < 1000 nM |
| Cc1ncc(-c2cc(C(=O)Nc3ccc(OCCc4ccccc4)cc3)cnn2)cc1C(=O)O [Example 71, 2-Methyl-5-[5-[[4-(2-phenylethoxy)phenyl]carbamoyl]pyridazin-3-yl]pyridine-3-carboxylic acid] | 1000 to 10000 nM |
